Data from patent publication US20250064941A1, “SIGLEC LIGANDS, CONJUGATES, AND METHODS OF USE THEREOF” (Osprey Biopharmaceuticals, Inc., priority 2023, published 2025).

Columns and labels:
[1] = biological target: T1, human Siglec-2/CD22 protein (Homo sapiens, UniProt P20273); test: SPR binding affinity to human CD22; conditions: steady-state analysis
T1 construct: purchased Acro Biosystems SI2-H82E3
T1 sequence (P20273 20-847): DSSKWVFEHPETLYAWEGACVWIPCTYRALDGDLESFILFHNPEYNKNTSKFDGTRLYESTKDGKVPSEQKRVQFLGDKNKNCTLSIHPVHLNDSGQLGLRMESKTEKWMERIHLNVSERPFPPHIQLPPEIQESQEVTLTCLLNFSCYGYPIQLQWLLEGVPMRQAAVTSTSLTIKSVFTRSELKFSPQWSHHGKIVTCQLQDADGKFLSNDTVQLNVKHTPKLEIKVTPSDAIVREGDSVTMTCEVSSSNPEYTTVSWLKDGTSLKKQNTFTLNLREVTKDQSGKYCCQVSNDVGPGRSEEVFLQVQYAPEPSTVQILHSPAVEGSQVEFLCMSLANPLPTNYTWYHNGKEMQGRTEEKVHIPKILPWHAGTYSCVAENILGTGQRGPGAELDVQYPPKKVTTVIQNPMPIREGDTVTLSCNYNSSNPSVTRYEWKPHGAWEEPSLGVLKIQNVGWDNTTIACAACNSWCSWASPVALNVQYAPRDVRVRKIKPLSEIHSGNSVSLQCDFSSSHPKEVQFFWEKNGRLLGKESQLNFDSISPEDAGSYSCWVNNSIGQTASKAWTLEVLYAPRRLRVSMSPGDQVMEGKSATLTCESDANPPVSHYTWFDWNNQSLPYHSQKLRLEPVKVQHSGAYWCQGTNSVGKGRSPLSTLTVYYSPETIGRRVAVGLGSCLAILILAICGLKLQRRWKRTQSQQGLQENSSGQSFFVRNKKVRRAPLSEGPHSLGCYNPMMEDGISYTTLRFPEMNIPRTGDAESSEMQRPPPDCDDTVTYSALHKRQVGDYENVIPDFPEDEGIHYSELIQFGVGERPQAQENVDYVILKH
Protocol: (§1) Prior to immobilization, CD22 proteins were treated with SialoExo (Genovis, Cat #G1-SM1-020) for 4 hours at 37° C. to remove native sialic acid residues.
(§2) Capture of biotinylated CD22 constructs was performed using a Cytiva SA chip (BR100398) on a Biacore 8K instrument.
(§3) Binding experiments of Siglec-ligand conjugated proteins or Siglec ligand compounds were performed on the surfaces prepared above in 10 mM HEPES, 150 mM NaCl, 0.05% Tween-20, pH 7.5, 1% DMSO as the running buffer. […] The compounds were then allowed to dissociate from the surface for 120 seconds. […] Solvent correction was performed using 0.5, 1, 1.5, and 2% DMSO spike into running buffer without DMSO. […] Data was analyzed using steady-state analysis in Biacore Insight Evaluation Software, version 3.0 for Siglec ligand compounds.

[2] = biological target: T2, mouse Siglec-2-Fc-Avi (CD22) (Mus musculus, UniProt P35329); test: SPR binding affinity to mouse CD22; conditions: steady-state analysis
T2 construct: made in house
T2 sequence (P35329 22-708 limits assumed): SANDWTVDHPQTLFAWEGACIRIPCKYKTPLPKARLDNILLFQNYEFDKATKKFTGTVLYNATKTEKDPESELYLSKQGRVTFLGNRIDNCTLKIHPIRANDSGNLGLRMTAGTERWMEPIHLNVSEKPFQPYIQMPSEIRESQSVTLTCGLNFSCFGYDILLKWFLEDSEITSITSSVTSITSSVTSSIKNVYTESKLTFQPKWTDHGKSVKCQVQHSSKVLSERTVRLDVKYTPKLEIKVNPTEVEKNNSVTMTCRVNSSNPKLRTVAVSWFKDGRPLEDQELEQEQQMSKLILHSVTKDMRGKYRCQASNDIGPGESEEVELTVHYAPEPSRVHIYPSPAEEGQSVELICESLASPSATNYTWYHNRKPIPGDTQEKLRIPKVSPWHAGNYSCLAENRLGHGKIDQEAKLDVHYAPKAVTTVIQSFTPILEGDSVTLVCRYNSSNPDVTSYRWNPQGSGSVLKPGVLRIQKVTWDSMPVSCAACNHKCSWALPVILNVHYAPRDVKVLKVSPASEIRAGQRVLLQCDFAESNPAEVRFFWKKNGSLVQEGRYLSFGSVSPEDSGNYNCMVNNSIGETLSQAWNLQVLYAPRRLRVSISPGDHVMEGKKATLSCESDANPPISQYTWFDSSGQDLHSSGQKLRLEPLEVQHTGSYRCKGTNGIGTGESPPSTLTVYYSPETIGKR
Protocol: as §1, §2, §3

Row | Kd [1] [nM] | Kd [2] [nM] | SMILES
1 | < 1000 | > 10000 | C#CCOCCCCCCO[C@]1(C(=O)O)C[C@H](O)[C@@H](Nc2c(NC)c(=O)c2=O)[C@H]([C@H](O)[C@H](O)CNC(=O)Cc2ccc(Cl)cc2)O1 [Compound 191, (2R,4S,5R,6R)-6-((1R,2R)-3-(2-(4-chlorophenyl)acetamido)-1,2-dihydroxypropyl)-4-hydroxy-5-((2-(methylamino)-3,4-dioxocyclobut-1-en-1-yl)amino)-2-((6-(prop-2-yn-1-yloxy)hexyl)oxy)tetrahydro-2H-pyran-2-carboxylic acid]
2 | < 1000 | 1000 to 10000 | C#CCOCCOCCNc1c(NCCCCCCO[C@]2(C(=O)O)C[C@H](O)[C@@H](NC(=O)CO)[C@H]([C@H](O)[C@H](O)CNC(=O)c3cccc(Oc4ccccc4)c3)O2)c(=O)c1=O [Compound 39, (2R,4S,5R,6R)-6-((1R,2R)-1,2-dihydroxy-3-(3-phenoxybenzamido)propyl)-2-((6-((3,4-dioxo-2-((2-(2-(prop-2-yn-1-yloxy)ethoxy)ethyl)amino)cyclobut-1-en-1-yl)amino)hexyl)oxy) -4-hydroxy-5-(2-hydroxyacetamido) tetrahydro-2H-pyran-2-carboxylic acid]
3 | < 1000 | < 1000 | C#CCOCCCCCCO[C@]1(C(=O)O)C[C@H](O)[C@@H](NC(=O)CO)[C@H]([C@H](O)[C@H](O)CNC(=O)Cc2ccc(-c3ccc(NC(C)=O)cc3)cc2)O1 [Compound 204, (2R,4S,5R,6R)-6-((1R,2R)-3-(2-(4′-acetamido-[1,1′-biphenyl]-4-yl)acetamido)-1,2-dihydroxypropyl)-4-hydroxy-5-(2-hydroxyacetamido)-2-((6-(prop-2-yn-1-yloxy)hexyl)oxy)tetrahydro-2H-pyran-2-carboxylic acid]
4 | < 1000 | 1000 to 10000 | CC(=O)NCCOCCOCCOCCOCc1cn(CCCCCCO[C@]2(C(=O)O)C[C@H](O)[C@@H](NC(C)=O)[C@H]([C@H](O)[C@H](O)CNC(=O)Cc3ccc(Cl)cc3)O2)nn1 [Compound 250, (2R,4S,5R,6R)-5-acetamido-6-((1R,2R)-3-(2-(4-chlorophenyl)acetamido)-1,2-dihydroxypropyl)-4-hydroxy-2-((6-(4-(15-oxo-2,5,8,11-tetraoxa-14-azahexadecyl)-1H-1,2,3-triazol-1-yl)hexyl)oxy) tetrahydro-2H-pyran-2-carboxylic acid]
5 | < 1000 | < 1000 | CC(=O)NCCOCCOCCOCCOCCn1cc(COCCCCCCO[C@]2(C(=O)O)C[C@H](O)[C@@H](NC(=O)CO)[C@H]([C@H](O)[C@H](O)CNC(=O)Cc3ccc(C(F)F)cc3)O2)nn1 [Compound 261, (2R,4S,5R,6R)-6-((1R,2R)-3-(2-(4-(difluoromethyl)phenyl)acetamido)-1,2-dihydroxypropyl)-4-hydroxy-5-(2-hydroxyacetamido)-2-((6-((1-(2-oxo-6,9,12,15-tetraoxa-3-azaheptadecan-17-yl)-1H-1,2,3-triazol-4-yl)methoxy)hexyl)oxy)tetrahydro-2H-pyran-2-carboxylic acid]
6 | < 1000 | > 10000 | C#CCOCCOCCO[C@]1(C(=O)O)C[C@H](O)[C@@H](NC(C)=O)[C@H]([C@H](O)[C@H](O)CNCc2cccc(Oc3ccccc3)c2)O1 [Compound 17, (2R,4S,5R,6R)-5-acetamido-6-((1R,2R)-1,2-dihydroxy-3-((3-phenoxybenzyl)amino)propyl)-4-hydroxy-2-(2-(2-(prop-2-yn-1-yloxy)ethoxy)ethoxy)tetrahydro-2H-pyran-2-carboxylic acid]
7 | < 1000 | 1000 to 10000 | C#CCOCCCCCCO[C@]1(C(=O)O)C[C@H](O)[C@@H](NC(=O)NCC)[C@H]([C@H](O)[C@H](O)CNC(=O)Cc2ccc(Cl)cc2)O1 [Compound 87, (2R,4S,5R,6R)-6-((1R,2R)-3-(2-(4-chlorophenyl)acetamido)-1,2-dihydroxypropyl)-5-(3-ethylureido)-4-hydroxy-2-((6-(prop-2-yn-1-yloxy)hexyl)oxy)tetrahydro-2H-pyran-2-carboxylic acid]
8 | < 1000 | > 10000 | C#CCOCCOP(=O)(O)OCCCCCCO[C@]1(C(=O)O)C[C@H](O)[C@@H](NC(=O)CO)[C@H]([C@H](O)[C@H](O)CNC(=O)Cc2ccc(C(F)F)cc2)O1 [Compound 215, (2R,4S,5R,6R)-6-((1R,2R)-3-(2-(4-(difluoromethyl)phenyl)acetamido)-1,2-dihydroxypropyl)-4-hydroxy-2-((6-((hydroxy(2-(prop-2-yn-1-yloxy)ethoxy)phosphoryl)oxy)hexyl)oxy)-5-(2-hydroxyacetamido)tetrahydro-2H-pyran-2-carboxylic acid]
9 | < 1000 | > 10000 | C#CCOCCCCCCO[C@]1(C(=O)O)C[C@H](O)[C@@H](NC(=O)c2ccccc2)[C@H]([C@H](O)[C@H](O)CNC(=O)Cc2ccc(Cl)cc2)O1 [Compound 92, (2R,4S,5R,6R)-5-benzamido-6-((1R,2R)-3-(2-(4-chlorophenyl)acetamido)-1,2-dihydroxypropyl)-4-hydroxy-2-((6-(prop-2-yn-1-yloxy)hexyl)oxy)tetrahydro-2H-pyran-2-carboxylic acid]
10 | 1000 to 10000 | 1000 to 10000 | C#CCOCCOCCNc1c(NCCCCCCO[C@]2(C(=O)O)C[C@H](O)[C@@H](NC(=O)CO)[C@H]([C@H](O)[C@H](O)CNC(=O)c3ccccc3Cl)O2)c(=O)c1=O [Compound 229, (2R,4S,5R,6R)-6-((1R,2R)-3-(2-chlorobenzamido)-1,2-dihydroxypropyl)-2-((6-((3,4-dioxo-2-((2-(2-(prop-2-yn-1-yloxy)ethoxy)ethyl)amino)cyclobut-1-en-1-yl)amino)hexyl)oxy)-4-hydroxy-5-(2-hydroxyacetamido)tetrahydro-2H-pyran-2-carboxylic acid]
11 | < 1000 | < 1000 | C#CCOC(=O)NCc1ccc(CO[C@]2(C(=O)O)C[C@H](O)[C@@H](NC(=O)CO)[C@H]([C@H](O)[C@H](O)CNC(=O)Cc3ccc(Cl)cc3)O2)cc1 [Compound 117, (2R,4S,5R,6R)-6-((1R,2R)-3-(2-(4-chlorophenyl)acetamido)-1,2-dihydroxypropyl)-4-hydroxy-5-(2-hydroxyacetamido)-2-((4-((((prop-2-yn-1-yloxy)carbonyl)amino)methyl)benzyl)oxy)tetrahydro-2H-pyran-2-carboxylic acid]
12 | 1000 to 10000 | > 10000 | CC(=O)NCCOCCOCCOCCOCCNC(=O)CCCCCCO[C@]1(C(=O)O)C[C@H](O)[C@@H](NC(C)=O)[C@H]([C@H](O)[C@H](O)CNC(=O)c2cccc(Cl)c2)O1 [Compound 270, (2R,4S,5R,6R)-5-acetamido-6-((1R,2R)-3-(3-chlorobenzamido)-1,2-dihydroxypropyl)-2-((2,19-dioxo-6,9,12,15-tetraoxa-3,18-diazapentacosan-25-yl)oxy)-4-hydroxytetrahydro-2H-pyran-2-carboxylic acid]
13 | 1000 to 10000 | 1000 to 10000 | C#CCOCCCCCCS[C@]1(C(=O)O)C[C@H](O)[C@@H](NC(=O)CO)[C@H]([C@H](O)[C@H](O)CNC(=O)c2ccc(Cl)cc2)O1 [Compound 251, (2S,4S,5R,6R)-6-((1R,2R)-3-(4-chlorobenzamido)-1,2-dihydroxypropyl)-4-hydroxy-5-(2-hydroxyacetamido)-2-((6-(prop-2-yn-1-yloxy)hexyl)thio) tetrahydro-2H-pyran-2-carboxylic acid]
